“And” between values parts separate entries of the source, which are not always exact repeats. Identical values can stand only once.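 Here, GI50 denotes the concentration required for 50% inhibition of growth. TGI: concentration producing complete growth inhibition.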
Assays:
Assay in all cases: NCI tumour cell line growth inhibition, 384-well format
[1] = tested on: SF-539 CNS
[2] = tested on: NCI/ADR-RES ovarian
[3] = tested on: SNB-19 CNS
[4] = tested on: SNB-75 CNS
[5] = tested on: HCT-15 colon
[6] = tested on: NCI-H522 lung
[7] = tested on: MCF7 breast
[8] = tested on: TK-10 renal
[9] = tested on: CAKI-1 renal
[10] = tested on: HL-60(TB) leukemia
[11] = tested on: HOP-92 NSCLC
[12] = tested on: MDA-MB-231 breast
[13] = tested on: RXF 393 renal
[14] = tested on: HOP-62 NSCLC
[15] = tested on: M14 melanoma
[16] = tested on: K-562 leukemia
[17] = tested on: KM12 colon
[18] = tested on: T-47D breast
[19] = tested on: MDA-MB-435 melanoma
[20] = tested on: SK-MEL-5 melanoma
[21] = tested on: EKVX NSCLC
[22] = tested on: NCI-H23 lung
[23] = tested on: SF-268 CNS
[24] = tested on: UACC-257 melanoma
[25] = tested on: DU-145 prostate
[26] = tested on: CCRF-CEM leukemia
[27] = tested on: A498 renal
[28] = tested on: UO-31 renal
[29] = tested on: HCT-116 colon
[30] = tested on: NCI-H226 lung
[31] = tested on: MOLT-4 leukemia
[32] = tested on: NCI-H460 NSCLC
[33] = tested on: NCI-H322M lung
[34] = tested on: PC-3 prostate
[35] = tested on: SK-MEL-28 melanoma
[36] = tested on: HCC-2998 colon
[37] = tested on: SF-295 CNS
[38] = tested on: SK-OV-3 ovarian
[39] = tested on: LOX IMVI melanoma
[40] = tested on: OVCAR-4 ovarian
[41] = tested on: OVCAR-8 ovarian
[42] = tested on: BT-549 breast
[43] = tested on: RPMI-8226 leukemia
[44] = tested on: MALME-3M melanoma
[45] = tested on: MDA-MB-468 breast
[46] = tested on: HT29 colon
[47] = tested on: SK-MEL-2 melanoma
[48] = tested on: SW-620 colon
[49] = tested on: ACHN renal
[50] = tested on: A549 NSCLC
[51] = tested on: OVCAR-3 ovarian
[52] = tested on: COLO 205 colon
[53] = tested on: 786-0 renal
[54] = tested on: SN12C renal
[55] = tested on: IGROV1 ovarian
[56] = tested on: U251 glioblastoma
[57] = tested on: SR leukemia
[58] = tested on: UACC-62 melanoma
[59] = tested on: OVCAR-5 ovarian
[60] = tested on: HS 578T breast

O=S(=O)(NCCNC/C=C/c1ccc(Br)cc1)c1cccc2cnccc12
GI50 [1]: 5.11 µM and 10.2 µM
TGI [1]: 19.7 µM and 21.9 µM
GI50 [2]: 13.2 µM and 14.6 µM
TGI [2]: 26.1 µM and 27.9 µM
GI50 [3]: 17 µM and 16.1 µM
TGI [3]: 30.8 µM and 29.7 µM
GI50 [4]: 10.3 µM and 10.8 µM
TGI [4]: 22 µM and 22.7 µM
GI50 [5]: 13.2 µM and 10.1 µM
TGI [5]: 26.1 µM and 21.9 µM
GI50 [6]: 12.1 µM and 13.7 µM
TGI [6]: 24.6 µM and 26.6 µM
GI50 [7]: 3.15 µM and 5.52 µM
TGI [7]: 18.8 µM and 18.2 µM
GI50 [8]: 10.4 µM and 11.3 µM
TGI [8]: 22.2 µM and 23.5 µM
GI50 [9]: 7.31 µM and 7.09 µM
TGI [9]: 20.1 µM and 19.8 µM
GI50 [10]: 1.21 µM and 3.62 µM
TGI [10]: 10.8 µM and 12.6 µM
GI50 [11]: 10.7 µM and 10.8 µM
TGI [11]: 22.6 µM and 22.7 µM
GI50 [12]: 11.5 µM and 10.9 µM
TGI [12]: 23.8 µM and 22.9 µM
GI50 [13]: 1.08 µM and 5.38 µM
TGI [13]: 8.71 µM and 18 µM
GI50 [14]: 11.8 µM and 14.2 µM
TGI [14]: 24.2 µM and 27.3 µM
TGI [15]: 3.48 µM and 18.4 µM
GI50 [16]: 1.88 µM and 3.3 µM
TGI [16]: 3.88 µM and 10.6 µM
GI50 [17]: 4.08 µM and 6.28 µM
TGI [17]: 19 µM and 18.3 µM
GI50 [18]: 2.78 µM and 4.36 µM
TGI [18]: 13.3 µM and 16.8 µM
GI50 [19]: 13 µM and 13.2 µM
TGI [19]: 25.7 µM and 26 µM
GI50 [20]: 2.89 µM and 3.31 µM
TGI [20]: 10.1 µM and 12.7 µM
GI50 [21]: 6.07 µM and 10 µM
TGI [21]: 18.9 µM and 21.7 µM
GI50 [22]: 6.06 µM and 10 µM
TGI [22]: 20.3 µM and 21.6 µM
GI50 [23]: 12 µM and 12.9 µM
TGI [23]: 24.4 µM and 25.6 µM
GI50 [24]: 2.2 µM and 2.34 µM
TGI [24]: 4.51 µM and 5.87 µM
GI50 [25]: 14.5 µM and 13.8 µM
TGI [25]: 27.8 µM and 26.9 µM
GI50 [26]: 3.81 µM and 5.3 µM
TGI [26]: 11.4 µM and 16.8 µM
GI50 [27]: 5.06 µM and 10.3 µM
TGI [27]: 19.6 µM and 22.1 µM
GI50 [28]: 12.5 µM and 13.1 µM
TGI [28]: 25.1 µM and 26 µM
GI50 [29]: 5.55 µM and 5.73 µM
TGI [29]: 17.9 µM and 17.3 µM
GI50 [30]: 11.2 µM and 15.4 µM
TGI [30]: 23.4 µM and 28.8 µM
GI50 [31]: 2.47 µM and 3.65 µM
TGI [31]: 6.41 µM and 12.7 µM
GI50 [32]: 4.63 µM and 4.23 µM
TGI [32]: 15.9 µM and 14.5 µM
GI50 [33]: 10.2 µM and 10.7 µM
TGI [33]: 21.9 µM and 22.6 µM
GI50 [34]: 3.6 µM and 6.95 µM
TGI [34]: 18.6 µM and 19.8 µM
GI50 [35]: 1.88 µM and 4.09 µM
TGI [35]: 15.6 µM and 14 µM
GI50 [36]: 2.15 µM and 2.09 µM
TGI [36]: 3.82 µM and 3.91 µM
GI50 [37]: 15.4 µM and 14.7 µM
TGI [37]: 28.8 µM and 27.9 µM
GI50 [38]: 10.4 µM and 10.9 µM
TGI [38]: 22.2 µM and 22.9 µM
GI50 [39]: 11.6 µM and 10.2 µM
TGI [39]: 23.9 µM and 22 µM
GI50 [40]: 12.8 µM and 13.8 µM
TGI [40]: 25.5 µM and 26.8 µM
GI50 [41]: 12.2 µM and 11.8 µM
TGI [41]: 24.7 µM and 24.2 µM
GI50 [42]: 3.57 µM and 6.51 µM
TGI [42]: 11.8 µM and 19.2 µM
GI50 [43]: 0.815 µM and 3.15 µM
TGI [43]: 5.43 µM and 11.4 µM
GI50 [44]: 0.391 µM and 2.09 µM
TGI [44]: 1.62 µM and 4.15 µM
GI50 [45]: 3.44 µM and 3.33 µM
TGI [45]: 9.73 µM and 12.7 µM
GI50 [46]: 3.17 µM and 4.08 µM
TGI [46]: 9.44 µM and 13.5 µM
GI50 [47]: 2.74 µM
TGI [47]: 6.86 µM
GI50 [48]: 14 µM and 14.8 µM
TGI [48]: 27.1 µM and 28.2 µM
GI50 [49]: 11.7 µM and 13.5 µM
TGI [49]: 24 µM and 26.4 µM
GI50 [50]: 14 µM
TGI [50]: 27.1 µM
GI50 [51]: 11.3 µM and 14.7 µM
TGI [51]: 23.4 µM and 28 µM
TGI [52]: 2.6 µM and 16.1 µM
GI50 [53]: 7.52 µM and 11.2 µM
TGI [53]: 20.1 µM and 23.3 µM
GI50 [54]: 13.4 µM and 13.1 µM
TGI [54]: 26.3 µM and 25.8 µM
GI50 [55]: 11.1 µM
TGI [55]: 23.3 µM
GI50 [56]: 12.3 µM and 12.5 µM
TGI [56]: 24.9 µM and 25.2 µM
GI50 [57]: 0.34 µM and 3.27 µM
TGI [57]: 1.15 µM and 5.05 µM
GI50 [58]: 0.814 µM and 3.2 µM
TGI [58]: 6.43 µM and 10.8 µM
GI50 [59]: 12.7 µM
TGI [59]: 25.4 µM
GI50 [60]: 4.89 µM and 8.58 µM
TGI [60]: 16.5 µM and 20.7 µM
